In patent US20170281470A1, “METHOD AND APPARATUS FOR DRY GRANULATION” (ATACAMA LABS OY, priority 2006, published 2017):

Test: Agglomeration during storage at room temperature and ambient humidity
Type: physicochemical
Settings: stored in room temperature and ambient humidity

- agglomeration during storage: heavy agglomeration
Structure (SMILES): CN(C)C(=N)N=C(N)N [100% metformin fine powder, metformin]
